Measurements from patent publication US20180203014A1, “COMPOSITIONS FOR DETECTING CIRCULATING INTEGRIN BETA-3 BIOMARKER AND METHODS FOR DETECTING CANCERS AND ASSESSING TUMOR PRESENCE OR PROGRESSION, CANCER DRUG RESISTANCE AND TUMOR STEMNESS” (The Regents of the University of California, priority 2015, published 2018).
Entries after “also recorded” stand apart in the source; their conditions may differ.

Assays:
[1] = system: β3-positive cells (FG-β3, MDA-MB231, FG-R); assay: Anchorage independent growth in soft agar, NFkB inhibitors with erlotinib (FIG. 31); type: cell-based, human; conditions: Lenalidomide 2 μM, PS-1145 1 μM, 10 to 15 days; for response of colonies / tumorsphere formation to single agent: β3-positive cells (intrinsic or acquired resistant), each agent alone: erlotinib 0.5 μM; for tumorsphere formation, combination with erlotinib: β3-positive cells, in combination with erlotinib 0.5 μM
Description: Then, the soft agar were stained with crystal violet and the colonies were counted manually.

[2] = system: panel of human carcinoma cell lines; assay: Tumorsphere assay (Example 2); type: cell-based; conditions: for tumorsphere formation in vitro, combination with erlotinib: β3-positive cells (FG-β3, PANC-1, A549), erlotinib 0.5 μM with lenalidomide 1-2 μM or bortezomib 4 nM; for impact of integrin β3 expression on resistance: β3-negative vs β3-positive cells
Experimental: Tumorsphere assay was performed as previously described (10). […] The media was replaced with fresh inhibitor 2/6 times a week. Survival curves were generated at least with five concentration points.

[3] = system: subcutaneous β3-positive tumors (FG-β3, FG-R); assay: Subcutaneous β3-positive tumors in mice; conditions: for tumor growth, monotherapy: lenalidomide 25 mg/kg/day or bortezomib 0.25 mg/kg alone; for tumor growth in vivo, combination with erlotinib: with erlotinib 25 mg/kg/day, lenalidomide 25 mg/kg/day (FG-β3) or bortezomib 0.25 mg/kg (FG-R)
Experimental: FG pancreatic carcinoma cells (1×10^6 tumor cells in 30 μl of PBS) were injected into the pancreas of 6- to 8-week-old male nude mice as previously described (10). Tumors were established for 2-3 weeks (tumor sizes were monitored by ultrasound) before beginning dosing. […] FG pancreatic carcinoma cells (1×10^6 tumor cells in 30 μl of PBS) were injected into the pancreas of 6- to 8-week-old male nude mice as previously described (10). Tumors were established for 2-3 weeks (tumor sizes were monitored by ultrasound) before beginning dosing. […] Tumors were measured every 2-3 days with calipers until they were harvested at day 10,16 or after acquired resistance.
Tumor dimensions are reported as the fold change relative to size of the same tumor on Day 1. Mean±SEM, (A) *P=0.042 using a one way ANOVA test. n=6 mice per group. […] Tumor dimensions are reported as the fold change relative to size of the same tumor on Day 1. *P=0.0134 using a one way ANOVA test. n=8 mice per group.

[4] = system: FG and FG-β3 cells; assay: Tumor sphere formation assay (Example 1); type: cell-based, human; conditions: for effect of αvβ3 expression on drug resistance (tumor sphere formation): FG lacking β3 vs FG-β3, in vitro
Experimental: Tumor spheres formation assays were performed essentially as described previously^17. […] Colonies were stained with crystal violet and scored with an Olympus SZH10 microscope. Survival curves were generated at least with five concentration points.

[5] = system: β3-positive and β3-negative tumor cells (FG, PANC-1); assay: Self renewal tumorsphere assay and soft agar assay, 3D (Example 3); type: cell-based, human; conditions: β3 ectopic expression (FG) or knockdown (PANC-1)
Experimental: Tumorsphere assay was performed as previously described. Soft agar formation assays were performed essentially as described previously. […] The media was replaced with fresh inhibitor 2/5 times a week. Survival curves were generated at least with five concentration points. […] Cells were treated with a dose response of gemcitabine, cisplatin, erlotinib, lapatinib and linsitinib. […] Tumor volumes are expressed as mean±SEM. *P<0.05. […] Results are expressed as % tumor weight compared to vehicle control. *P<0.05. […] Data are mean±SE; **P<0.001. […] Scale bar, 50 μm.

[6] = system: H441 human lung adenocarcinoma orthotopic tumors; assay: Orthotopic lung cancer xenograft model; type: in vivo, mice
Experimental: FG pancreatic carcinoma cells (1×10^6 tumor cells in 30 μl of PBS) were injected into the pancreas of 6- to 8-week-old male nude mice as previously described (10). Tumors were established for 2-3 weeks (tumor sizes were monitored by ultrasound) before beginning dosing. […] H441 lung adenocarcinoma cells were generated as previously described (21). […] FG pancreatic carcinoma cells (1×10^6 tumor cells in 30 μl of PBS) were injected into the pancreas of 6- to 8-week-old male nude mice as previously described (10). Tumors were established for 2-3 weeks (tumor sizes were monitored by ultrasound) before beginning dosing. […] H441 lung adenocarcinoma cells were generated as previously described (21). […] Tumors were measured every 2-3 days with calipers until they were harvested at day 10,16 or after acquired resistance.

[7] = system: HCC827 xenograft tumors; assay: HCC827 xenograft tumors treated until acquired resistance; type: in vivo, mice; conditions: erlotinib 12.5 mg/kg/day until acquired resistance
Description: Tumor volumes are expressed as mean±SEM. *P<0.05. […] Results are expressed as % tumor weight compared to vehicle control. *P<0.05. […] Data are mean±SE; **P<0.001. […] Scale bar, 50 μm.

[8] = system: PANC-1 cells; assay: Tumor sphere formation assay, knockdown of αvβ3 (Example 1); type: cell-based, human
Experimental: Tumor spheres formation assays were performed essentially as described previously^17. Briefly, cells were seeded at 1000 to 2000 cells per well and grown for 12 days to 3 weeks. […] Colonies were stained with crystal violet and scored with an Olympus SZH10 microscope. Survival curves were generated at least with five concentration points.

[9] = system: subcutaneous A549 xenografts; assay: Subcutaneous A549 xenografts, integrin β3 knockdown; type: in vivo, mice; conditions: A549 shCTRL vs sh β3, erlotinib 25 mg/kg/day, 16 days
Description: (A) Immunoblots showing integrin β3 knockdown efficiency in cells used in FIG. 1. […] Tumor volumes are expressed as mean±SEM. n=8 mice per group. (C) Immunoblots showing expression of indicated proteins of representative tumors. […] (E) Effect of integrin β3 expression on lapatinib, OSI-906, cisplatin and gemcitabine n=3; mean±SEM. (F) Viability assay (CellTiter-Glo assay) of FG and FG-β3 cells grown in suspension in media with or without serum. n=2; mean+SEM. *P<0.05. **P<0.01.
(a) Effect of integrin β3 expression (ectopic expression for FG and integrin β3-specific knockdown for PANC-1) cells on drug treatment response. Cells were treated with a dose response of gemcitabine, cisplatin, erlotinib, lapatinib and linsitinib. […] Tumor volumes are expressed as mean±SEM. *P<0.05. […] Results are expressed as % tumor weight compared to vehicle control. *P<0.05. […] (f) Relative mRNA expression of integrin β3 (ITGB3) in HCC827 vehicle-treated tumors (n=5) or erlotinib-treated tumors (n=7) from (e) after acquired resistance. Data are mean±SE; **P<0.001. […] Scale bar, 50 μm. […] The HCC827 erlotinib-treated tumors have been digested and sorted in two groups: the integrin β3− and the integrin β3+ population.

[10] = system: HCC827 human lung cancer cells; assay: Circulating tumor cells from orthotopic HCC827 lung tumors (FIG. 30); type: in vivo, mice; conditions: orthotopic HCC827, 3 months at 25 mg/kg/day
Description: FIG. 30 illustrates data showing integrin β3 (CD61) is a RTKI (Receptor Tyrosine Kinase (RTK) Inhibitor) drug resistance biomarker on the surface of circulating tumor cells; as discussed in detail in Example 2, below.

[11] = system: integrin αvβ3 (CD61); assay: Flow cytometry of αvβ3 after prolonged EGFR TKI exposure in vitro; type: cell-based, human; conditions: FG, Miapaca-2 and other erlotinib sensitive lines, weeks of treatment
Experimental: Human pancreatic (FG, PANC-1, Miapaca-2 (MP2), CFPAC-1, XPA-1, CAPAN-1, BxPc3), breast (MDAMB231, MDAMB468 (MDA468), BT20, SKBR3, BT474), colon (SW480) and lung (A549, H441) cancer cell lines were grown in ATCC recommended media supplemented with 10% fetal bovine serum, glutamine and non-essential amino acids. We obtained FG-β3, FG-D119A mutant and PANC-shβ3 cells as previously described^17. […] Cisplatin was generated from Sigma-Aldrich. Lenalidomide was purchased from LC Laboratories.
200,000 cells, after drug or vehicle treatment, were washed with PBS and incubated for 20 minutes with the Live/Dead reagent (Invitrogen) according to the manufacturer's instruction, then, cells were fixed with 4% paraformaldehyde for 15 min and blocked for 30 min with 2% BSA in PBS. Cells were stained with fluorescent-conjugated antibodies to CD61 (LM609), CD44 (eBioscience), CD24 (eBioscience), CD34 (eBioscience), CD133 (Santa Cruz), CD56 (eBioscience), CD29 (P4C10) and CD49f (eBioscience). All antibodies were used at 1:100 dilutions, 30 minutes at 4° C. After washing several times with PBS, cells were analyzed by FACS.

[12] = system: orthotopic FG pancreatic tumors; assay: Orthotopic pancreas cancer xenograft model; type: in vivo, mice
Experimental: All mouse experiments were carried out in accordance with approved protocols from the UCSD animal subjects committee and with the guidelines set forth in the NIH Guide for the Care and Use of Laboratory Animals. Tumors were generated by injection of FG human pancreatic carcinoma cells (10^6 tumor cells in 30 μL of sterile PBS) into the tail of the pancreas of 6-8 week old male immune compromised nu/nu mice.
Tumors were generated as previously described (JAY).

[13] = system: stage IV non-small cell lung cancer; assay: Serial biopsies from NSCLC patients on erlotinib therapy; type: in vivo, human
Experimental: All biopsies are from lung or pleural effusion. […] This work was approved by the UCSD Institutional Review Board (IRB).
Immunostaining was performed according to the manufacturer's recommendations (Vector Labs) on […] sections of paraffin-embedded tumors from tumor biopsies from lung cancer patients. Tumor sections were processed as previously described (23) using integrin β3 (Abcam clone EP2417Y). Sections stained with integrin β3 were scored by a H-score according to the staining intensity (SI) on a scale 0 to 3 within the whole tissue section.

[14] = system: phosphorylated TBK1 and NF-κB; assay: Immunoblot analysis of RalB effectors in cells grown in suspension and treated with erlotinib; type: cell-based, human; conditions: αvβ3 negative cells, erlotinib 0.5 μM
Experimental: Cells were lysed in either RIPA lysis buffer (50 mM Tris pH 7.4, 100 mM NaCL, 2 mM EDTA, 10% DOC, 10% Triton, 0.1% SDS) or Triton lysis buffer (50 mM Tris pH 7.5, 150 mN NaCl, 1 mM EDTA, 5 mM MgCl2, 10% Glycerol, 1% Triton) supplemented with complete protease and phosphatase inhibitor mixtures (Roche) and centrifuged at 13,000 g for 10 min at 4° C. Protein concentration was determined by BCA assay. 500 μg to 1 mg of protein were immunoprecipitated with 3 μg of anti-integrin αvβ-3 (LM609) overnight at 4° C. following by capture with 25 μl of protein A/G (Pierce). Beads were washed five times, eluted in Laemmli buffer, resolved on NuPAGE 4-12% Bis-Tris Gel (Invitrogen) and immunoblotting was performed with anti-integrin β3 (Santa Cruz), anti-RalB (Cell Signaling Technology), anti KRAS (Santa Cruz). For immunoblot analysis, 25 of protein was boiled in Laemmli buffer and resolved on 8% to 15% gel. […]

[15] = systemic erlotinib treatment for 7-8 weeks

Which “response of colonies / tumorsphere formation to single agent” value [1] does the source give for `Nc1cccc2c1CN(C1CCC(=O)NC1=O)C2=O` (racemic) [lenalidomide, (RS)-3-(4-amino-1-oxo-3H-isoindol-2-yl)piperidine-2,6-dione] here?
Its value is “resistant”.

And the “tumorsphere formation, combination with erlotinib” value [1]?
The value was “decreased tumorsphere formation”.

What about the “tumorsphere formation in vitro, combination with erlotinib” value [2] of the same molecule?
The value was “decreased tumorsphere formation”.

And the “tumor growth, monotherapy” value [3]?
Its value is “failed to impact tumor growth”.

What about the “tumor growth in vivo, combination with erlotinib” value [3] of the same molecule?
Its value is “completely suppressed tumor growth”.

For `C[C@]1(O)C[C@@H](c2nc(-c3ccc4ccc(-c5ccccc5)nc4c3)c3c(N)nccn32)C1` [OSI-906], which “effect of αvβ3 expression on drug resistance (tumor sphere formation)” value (“effect of αvβ3 expression” for short) [4] is on record?
The value was “induced resistance”.

And the “effect of β3 expression on drug response, cells growing in 3D” value (“effect of β3 expression on drug response” for short) [5]?
Its value is “reduced sensitivity”.

`O=C(Nc1cc(Cl)cc2c1[nH]c1cnccc12)c1cccnc1` [PS-1145] was tested. Which “response of colonies / tumorsphere formation to single agent” value [1] did it give?
The value was “resistant”.

What about the “tumorsphere formation, combination with erlotinib” value [1] of the same molecule?
Its value is “decreased tumorsphere formation”.

Which results are given for `CC(C)C[C@H](NC(=O)[C@H](Cc1ccccc1)NC(=O)c1cnccn1)B(O)O` [bortezomib]?
tumorsphere formation in vitro, combination with erlotinib [2]: decreased tumorsphere formation; tumor growth, monotherapy [3]: failed to impact tumor growth; tumor growth in vivo, combination with erlotinib [3]: completely suppressed tumor growth

How did the “effect of αvβ3 expression” value [4] turn out when `N.N.[Cl][Pt][Cl]` [cisplatin] was run?
The value was “failed to protect cells”.

And the “effect of β3 expression on drug response” value [5]?
The value was “did not impact the response”.

What about the “impact of integrin β3 expression on resistance” value [2] of the same molecule?
The value was “did not impact resistance”.

`C#Cc1cccc(Nc2ncnc3cc(OCCOC)c(OCCOC)cc23)c1` [erlotinib, N-(3-ethynylphenyl)-6,7-bis(2-methoxyethoxy) quinazolin-4-amine] was tested. Which time until moribund ([6]; erlotinib 100 mg/kg/day by oral gavage, start 3 weeks after tumor cell injection) did it give?
The time until moribund was ~58 days.

And the development of resistance [6, 15]?
The development of resistance was “developed resistance”.

What about the “integrin αvβ3 expression compared with vehicle-treated tumors” value [6, 15] of the same molecule?
Its value is “qualitative increase in integrin αvβ3 expression”.

And the “integrin β3 expression in erlotinib resistant vs vehicle-treated tumors” value [7]?
Its value is “significantly higher”.

And the “increase in tumor cell sensitivity to erlotinib after knockdown of αvβ3” value [8]?
Its value is 10 fold.

What about the “erlotinib resistance after knockdown of integrin β3” value [9] of the same molecule?
Its value is “overcame erlotinib resistance”.

What about the “response of colonies / tumorsphere formation to single agent” value [1] of the same molecule?
Its value is “resistant”.

And the “αvβ3 (CD61) status of human lung cancer cells detected in the circulation” value [10]?
Its value is “positive for αvβ3”.

What about the “erlotinib resistance, ligation competent vs incompetent integrin αvβ3” value ([4]; FG cells transfected with WT β3 or D119A mutant) of the same molecule?
The value was “same degree of erlotinib resistance”.

What about the “effect of αvβ3 expression” value [4] of the same molecule?
The value was “dramatically increased erlotinib resistance”.

And the “integrin αvβ3 / β3 expression after prolonged erlotinib exposure in vitro” value [11]?
Its value is “the greater the expression level of αvβ3; also recorded: induction of β3 expression”.

What about the “effect of β3 expression on drug response” value [5] of the same molecule?
The value was “reduced sensitivity”.

And the erlotinib response ([2]; H1650 cells, wildtype KRAS and mutant EGFR)?
The erlotinib response was “resistant”.

What about the erlotinib response ([2]; tumor cell lines with oncogenic KRAS: FG, H441, and CAPAN1) of the same molecule?
Its erlotinib response is “sensitive”.

And the “erlotinib resistance of orthotopic pancreatic tumors with ectopic β3 expression” value ([12]; FG vs FG-β3 orthotopic tumors, systemic treatment)?
The value was “dramatically increased erlotinib resistance; also recorded: conferred erlotinib resistance”.

And the “increase in αvβ3 expression” value ([12]; orthotopic FG pancreatic tumors, four weeks of erlotinib treatment)?
The value was 10 fold.

What about the “EGFR phosphorylation in tumor lysates (immunoblot)” value ([12]; orthotopic FG tumors after 10 days of erlotinib) of the same molecule?
The value was “suppressed EGFR phosphorylation”.

What about the “disease progression after days of erlotinib therapy” value (shortened to “disease progression after days”) ([13]; Patient 1) of the same molecule?
The value was 920 days.

And the “disease progression after days” value ([13]; Patient 2)?
Its value is 92 days.

And the “disease progression after days” value ([13]; Patient 3)?
Its value is 120 days.

What about the initial response ([13]; all 3 patients) of the same molecule?
The initial response was “partial response”.

What about the “integrin β3 expression in biopsies after vs before erlotinib resistance” value ([13]; paired lung tumor biopsies, immunohistochemistry) of the same molecule?
Its value is “qualitative increase in integrin β3 expression; also recorded: qualitatively higher”.

And the “levels / activation of phosphorylated TBK1 and NF-κB” value [14]?
Its value is “reduced; also recorded: decreased the activation”.

For `Nc1ccn([C@@H]2O[C@H](CO)[C@@H](O)C2(F)F)c(=O)n1` [gemcitabine], which “effect of αvβ3 expression” value [4] is on record?
Its value is “failed to protect cells”.

What about the “effect of β3 expression on drug response” value [5] of the same molecule?
The value was “did not impact the response”.

And the “impact of integrin β3 expression on resistance” value [2]?
Its value is “did not impact resistance”.

For `CS(=O)(=O)CCNCc1ccc(-c2ccc3ncnc(Nc4ccc(OCc5cccc(F)c5)c(Cl)c4)c3c2)o1` [lapatinib], which “effect of β3 expression on drug response” value [5] is on record?
The value was “reduced sensitivity”.
